This is an account of results in patent US12252524B2, “GIP/GLP1 co-agonist compounds” (Eli Lilly and Company, priority 2018, dated 2025).

Read-outs that look alike come from different tables or passages of the source. Numbered stars: 1 amine (or outer) side, 2 acyl side, 3 side chain; on linkers, the order of the positions; unused ones are H or OH. Square brackets hold non-standard residues; d marks the D form. Side chains are listed from the residue outwards. Peptide text beside a SMILES is read from it. * marks the point of attachment. C20 diacid = O=C(O)CCCCCCCCCCCCCCCCCCC(=O)*; C18 diacid = O=C(O)CCCCCCCCCCCCCCCCC(=O)*; αMePhe(2-F) = C[C@](N)(Cc1ccccc1F)C(=O)O; γGlu = O=C(O)[C@H](CCC(=O)[*:2])N[*:1]; αMeL = CC(C)C[C@](C)(N)C(=O)O; Orn = NCCC[C@H](N)C(=O)O; AEEA = NCCOCCOCC(=O)O; Aib = CC(C)(N)C(=O)O

What is called Ki is the equilibrium dissociation constant of an inhibitor or competing ligand from its target. Read a high Ki as a looser hold on the target. Usually CL/F stands for the apparent clearance, not corrected for the fraction that reaches the circulation. As usually defined, the Tmax is the time from dosing to the highest level. What is called half-life is the time needed for the level to fall by half in the phase considered. Higher therefore signals slow loss.

The target of one data set is T1, human GIP receptor (Homo sapiens, UniProt P48546).
T1 construct: expressed in transfected cells; crude membranes
T1 sequence (P48546 22-466): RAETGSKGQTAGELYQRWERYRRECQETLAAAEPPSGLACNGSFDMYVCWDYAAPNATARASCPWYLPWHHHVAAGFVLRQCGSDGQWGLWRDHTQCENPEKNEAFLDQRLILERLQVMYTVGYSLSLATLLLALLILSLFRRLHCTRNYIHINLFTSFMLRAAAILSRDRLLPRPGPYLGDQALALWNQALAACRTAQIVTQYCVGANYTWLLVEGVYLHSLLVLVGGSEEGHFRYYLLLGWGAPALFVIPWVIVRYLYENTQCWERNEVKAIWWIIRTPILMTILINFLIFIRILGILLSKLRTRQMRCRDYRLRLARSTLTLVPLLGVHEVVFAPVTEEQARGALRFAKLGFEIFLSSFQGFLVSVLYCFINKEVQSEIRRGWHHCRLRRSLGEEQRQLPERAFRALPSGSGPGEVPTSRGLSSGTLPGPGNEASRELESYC
Briefly: [125I]-GIP binding (SPA), human GIP receptor.

The test system of data set [1] is CD8+ T cell depleted peripheral blood mononuclear cells. Put plainly: CD4+ T cell assay for potential clinical immunogenicity. As to conditions: for frequency of positive CD+ T cell response (CDI>2.5): CD4+ T cell assay; for % Donor Response (CD4+ T cell response) / Median Response Strength in positive donors (CDI): Examples 10 uM, KLH 0.33 μM, 7 days.
Description: The purpose of this study is to determine the relative potential for clinical immunogenicity of a compound.
CD8+ T cell depleted peripheral blood mononuclear cells are prepared and labeled with Carboxyfluorescein Diacetate Succinimidyl Ester (CFSE, Invitrogen) from a cohort of 10 healthy donors. […] Cultures are incubated for 7 days at 37° C. with 5% CO2. On day 7, samples are analyzed by flow cytometry using High Throughput Sampler (HTS). Data is analyzed using FlowJo® Software (FlowJo, LLC, TreeStar).
The conditions of data set [2]: single subcutaneous 200 nMol/kg, male CD-1 mice.
Description: (§1) The pharmacokinetics of select Examples are evaluated following a single subcutaneous administration of 200 nMol/kg to male CD-1 mice. […] Plasma (K3 EDTA) concentrations are determined using a qualified LC/MS method that measures the intact mass of the Examples. […] Instruments are combined for LC/MS detection.
For data set [3] the following is noted: single intrajejunal 1 μmol/kg with 250 mM C10 and 12 mg/mL SBTI, male Sprague Dawley rats; for Cmax/D: mean (SD).
Description: (§2) The pharmacokinetics of select Examples are evaluated following a single subcutaneous (SC) administration of 50 nMol/kg (dissolved in PBS, pH 7.4) or single 1 μmol/kg (mixed with 250 mM sodium decanoate (“C10”) and 12 mg/mL soybean trypsin inhibitor (SBTI)) intrajejunal (IJ) administration to male Sprague Dawley rats. […] Pharmacokinetic parameters are calculated using individual plasma concentrations. A qualified LC/MS method that measures the intact mass of the Example is used to determine plasma (K3 EDTA) concentrations. Each Example is tested with an analog peptide as an internal standard. Immunoaffinity based precipitation with anti-GIP/GLP1 antibodies is used to extract each test peptide and analog.
The nature of data set [4]: in vivo. Particulars: male, CD-1, mouse, plasma, sc, 200 nmol/kg.
Description: as §1
The nature of data set [5]: in vivo. Particulars: male, Sprague Dawley, rat, plasma, sc, 50 nmol/kg.
Description: as §2
For data set [6] the following is noted: single subcutaneous 50 nMol/kg, male Sprague Dawley rats; mean (SD).
Description: as §2
Data set [7] is described as follows: in vivo. As to conditions: male, cynomolgus monkey, plasma, sc, 50 nmol/kg.
Description: (§3) Pharmacokinetics in male Cynomolgus Monkeys The pharmacokinetics of select Examples are evaluated following a single subcutaneous administration of 50 nMol/kg to male cynomolgus monkeys. […] Peptide plasma (K3 EDTA) concentrations are determined using a qualified LC/MS method that measured the intact mass of the compound. […] Instruments are combined for LC/MS detection.
The target of a further data set is human GLP-1R (Homo sapiens, UniProt P43220). Briefly: [125I]-GLP-1 binding (SPA), human GLP-1 receptor. Set-up: expressed in transfected cells; crude membranes. In a few lines: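 Assay buffer: HEPES 25 mM, pH 7.4, CaCl2 2.5 mM, MgCl2 1 mM, with EDTA-free protease inhibitors. Receptor came from crude cell membranes prepared by homogenization and centrifugation at 4° C. IC50s came from four-parameter fits (maximum, minimum, IC50, Hill slope) and were expressed as Ki geometric means with SEM.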

The conditions of data set [8]: single subcutaneous 50 nMol/kg, male cynomolgus monkeys.
Description: as §3

Chain of human GLP-1R (P43220 24-463): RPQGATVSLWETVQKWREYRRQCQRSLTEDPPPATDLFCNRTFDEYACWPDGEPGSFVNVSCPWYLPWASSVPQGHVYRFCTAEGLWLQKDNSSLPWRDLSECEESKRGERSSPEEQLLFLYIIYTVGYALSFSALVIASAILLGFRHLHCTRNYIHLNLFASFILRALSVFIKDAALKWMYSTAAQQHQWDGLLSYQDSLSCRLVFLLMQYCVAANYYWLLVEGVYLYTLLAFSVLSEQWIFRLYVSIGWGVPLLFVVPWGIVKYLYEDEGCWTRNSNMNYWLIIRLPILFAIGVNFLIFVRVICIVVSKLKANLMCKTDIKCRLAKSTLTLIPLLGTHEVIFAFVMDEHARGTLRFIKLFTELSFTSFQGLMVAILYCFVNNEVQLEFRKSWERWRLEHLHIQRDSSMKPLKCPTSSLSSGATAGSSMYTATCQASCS

In the case of `CC[C@H](C)[C@H](NC(=O)[C@H](CC(C)C)NC(=O)[C@H](Cc1ccc(O)cc1)NC(=O)[C@@H](CCC(=O)O)NC(=O)[C@@H](NC(=O)[C@H](Cc1ccccc1)NC(=O)[C@H](CCC(=O)O)NC(=O)C(C)(C)NC(=O)[C@H](CCC(N)=O)NC(=O)[C@H](C)NC(=O)[C@H](CCCCNC(=O)COCCOCCNC(=O)COCCOCCNC(=O)CC[C@H](NC(=O)CCCCCCCCCCCCCCCCCCC(=O)O)C(=O)O)NC(=O)[C@H](CCC(=O)O)NC(=O)[C@H](CC(=O)O)NC(=O)[C@H](CC(C)C)NC(=O)[C@](C)(CC(C)C)NC(=O)[C@@H](NC(=O)[C@H](CO)NC(=O)[C@H](Cc1ccc(O)cc1)NC(=O)[C@H](CC(=O)O)NC(=O)[C@H](CO)NC(=O)[C@@H](NC(=O)[C@](C)(Cc1ccccc1F)NC(=O)[C@@H](NC(=O)CNC(=O)[C@H](CCC(=O)O)NC(=O)C(C)(C)NC(=O)[C@@H](N)Cc1ccc(O)cc1)[C@@H](C)O)[C@@H](C)O)[C@@H](C)CC)[C@@H](C)CC)C(=O)N[C@@H](CCC(=O)O)C(=O)NCC(=O)NCC(=O)N1CCC[C@H]1C(=O)N[C@@H](CO)C(=O)N[C@@H](CO)C(=O)NCC(=O)N[C@@H](C)C(=O)N1CCC[C@H]1C(=O)N1CCC[C@H]1C(=O)N1CCC[C@H]1C(=O)N[C@@H](CO)C(N)=O` [Example 1] (H-Y[Aib]EGT[αMePhe(2-F)]TSDYSI[αMeL]LDEK([AEEA-AEEA-γGlu-C20 diacid])AQ[Aib]EFI[dE]YLIEGGPSSGAPPPS-NH2), the Ki on human GIP receptor was determined as 0.0546 nM; on human GLP-1R, 6.67 nM. In data set [1], the “frequency of positive CD+ T cell response (CDI>2.5)” value (“frequency” below) is given as “low”. For the same molecule, in data set [1], the “% Donor Response (CD4+ T cell response)” value is reported as 9%. In addition, the “Median Response Strength in positive donors (CDI)” value in data set [1] worked out at 0.7 CDI. In addition, the AUCINF_D_obs in [2] is listed as 135.61 hr*kg*nmol/L/nmol; in [3], 1.31 hr*kg*nmol/L/nmol; in [6], 294.2 (30.0) hr*kg*nmol/L/nmol; in data set [8] it was 1458 hr*kg*nmol/L/nmol. The Cmax/D was 4.84 kg*nmol/L/nmol in data set [2], 0.08 (0.05) kg*nmol/L/nmol in [3], 3.34 (0.22) kg*nmol/L/nmol in data set [6] and 6.5 kg*nmol/L/nmol in data set [8]. Also, the figures for the CL/F in “in vivo [4]”, in “in vivo [5]” and in the data set “in vivo [7]” were 7.37 mL/h/kg, 3.42 mL/h/kg and 0.69 mL/h/kg, respectively. Also, the Tmax in “in vivo [4]” is 12 h; in “in vivo [5]” it was 21.3 h; in the data set “in vivo [7]” it was 18 h. Moreover, the half-life was 17.5 h in the data set “in vivo [4]”, 44.7 h in “in vivo [5]” and 125 h in the data set “in vivo [7]”.
Regarding `CC[C@H](C)[C@H](NC(=O)[C@H](CC(C)C)NC(=O)[C@H](Cc1ccc(O)cc1)NC(=O)[C@@H](CCC(=O)O)NC(=O)[C@@H](NC(=O)[C@H](Cc1ccccc1)NC(=O)[C@H](CCC(=O)O)NC(=O)C(C)(C)NC(=O)[C@H](CCC(N)=O)NC(=O)[C@H](C)NC(=O)[C@H](CCCCNC(=O)COCCOCCNC(=O)COCCOCCNC(=O)CC[C@H](NC(=O)CCCCCCCCCCCCCCCCC(=O)O)C(=O)O)NC(=O)[C@H](CCCN)NC(=O)[C@H](CC(=O)O)NC(=O)[C@H](CC(C)C)NC(=O)[C@](C)(CC(C)C)NC(=O)[C@@H](NC(=O)[C@H](CO)NC(=O)[C@H](Cc1ccc(O)cc1)NC(=O)[C@H](CC(=O)O)NC(=O)[C@H](CO)NC(=O)[C@@H](NC(=O)[C@](C)(Cc1ccccc1F)NC(=O)[C@@H](NC(=O)CNC(=O)[C@H](CCC(=O)O)NC(=O)C(C)(C)NC(=O)[C@@H](N)Cc1ccc(O)cc1)[C@@H](C)O)[C@@H](C)O)[C@@H](C)CC)[C@@H](C)CC)C(=O)N[C@@H](CCC(=O)O)C(=O)NCC(=O)NCC(=O)N1CCC[C@H]1C(=O)N[C@@H](CO)C(=O)N[C@@H](CO)C(=O)NCC(=O)N[C@@H](C)C(=O)N1CCC[C@H]1C(=O)N1CCC[C@H]1C(=O)N1CCC[C@H]1C(=O)N[C@@H](CO)C(N)=O` [Example 2] (H-Y[Aib]EGT[αMePhe(2-F)]TSDYSI[αMeL]LD[Orn]K([AEEA-AEEA-γGlu-C18 diacid])AQ[Aib]EFI[dE]YLIEGGPSSGAPPPS-NH2; N-terminus assumed), the results for the Ki on human GIP receptor and at human GLP-1R were 0.06 nM and 2.35 nM, respectively. For the same molecule, the “frequency” value in data set [1] is “low”. Further, the “% Donor Response (CD4+ T cell response)” value in data set [1] came out at 22%. The “Median Response Strength in positive donors (CDI)” value in data set [1] is on record as 3.68 CDI. Further, the AUCINF_D_obs in [2] is given as 77.23 hr*kg*nmol/L/nmol; in data set [3], 6.6 hr*kg*nmol/L/nmol; in data set [6], 231.7 (9.6) hr*kg*nmol/L/nmol; in data set [8], 2059 hr*kg*nmol/L/nmol. Further, the Cmax/D in data set [2] was 5.4 kg*nmol/L/nmol; in data set [3], 0.56 (0.40) kg*nmol/L/nmol; in data set [6], 5.19 (0.20) kg*nmol/L/nmol; in [8], 11.7 kg*nmol/L/nmol. Besides, the results for the CL/F in “in vivo [4]”, in “in vivo [5]” and in “in vivo [7]” were 12.9 mL/h/kg, 4.32 mL/h/kg and 0.49 mL/h/kg, respectively. For the same molecule, the time to peak (Tmax) amounted to 6 h in “in vivo [4]”, 14.7 h in “in vivo [5]” and 24 h in “in vivo [7]”. Also, the half-life was 7.55 h in “in vivo [4]”, 20.3 h in “in vivo [5]” and 102 h in “in vivo [7]”.
The molecule `CC[C@H](C)[C@H](NC(=O)[C@H](CC(C)C)NC(=O)[C@](C)(Cc1ccc(O)cc1)NC(=O)[C@@H](CCC(=O)O)NC(=O)[C@@H](NC(=O)[C@H](Cc1ccccc1)NC(=O)[C@H](CCC(=O)O)NC(=O)C(C)(C)NC(=O)[C@H](CCC(N)=O)NC(=O)[C@H](C)NC(=O)[C@H](CCCCNC(=O)COCCOCCNC(=O)COCCOCCNC(=O)CC[C@H](NC(=O)CCCCCCCCCCCCCCCCC(=O)O)C(=O)O)NC(=O)[C@H](CCCN)NC(=O)[C@H](CC(=O)O)NC(=O)[C@H](CC(C)C)NC(=O)[C@](C)(CC(C)C)NC(=O)[C@@H](NC(=O)[C@H](CO)NC(=O)[C@H](Cc1ccncc1)NC(=O)[C@H](CC(=O)O)NC(=O)[C@H](CO)NC(=O)[C@@H](NC(=O)[C@](C)(Cc1ccccc1F)NC(=O)[C@@H](NC(=O)CNC(=O)[C@H](CCC(=O)O)NC(=O)C(C)(C)NC(=O)[C@@H](N)Cc1ccc(O)cc1)[C@@H](C)O)[C@@H](C)O)[C@@H](C)CC)[C@@H](C)CC)C(=O)N[C@@H](CCC(=O)O)C(=O)NCC(=O)NCC(=O)N1CCC[C@H]1C(=O)N[C@@H](CO)C(=O)N[C@@H](CO)C(=O)NCC(=O)N[C@@H](C)C(=O)N1CCC[C@H]1C(=O)N1CCC[C@H]1C(=O)N1CCC[C@H]1C(=O)N[C@@H](CO)C(N)=O` [Example 4] showed a Ki on human GIP receptor of 0.0528 nM. Further, in data set [1], the “frequency” value is “low” and the “% Donor Response (CD4+ T cell response)” value is 0%. At human GLP-1R, this molecule had a Ki of 1.63 nM.
